These results are taken from ChEMBL document CHEMBL1157515, “Discovery of a novel class of 2-ureido thiophene carboxamide checkpoint kinase inhibitors” (Bioorg Med Chem Lett, 2008).

One data set concerns HT-29. As to the kind of experiment: Abrogation of camptothecin induced cell cycle arrest at G2/M phase in human HT29 cells. The format is functional, cell-based.
The target of data set [1] is T1, Serine/threonine-protein kinase Chk1 (Homo sapiens, UniProt O14757).
T1 sequence (O14757 whole entry): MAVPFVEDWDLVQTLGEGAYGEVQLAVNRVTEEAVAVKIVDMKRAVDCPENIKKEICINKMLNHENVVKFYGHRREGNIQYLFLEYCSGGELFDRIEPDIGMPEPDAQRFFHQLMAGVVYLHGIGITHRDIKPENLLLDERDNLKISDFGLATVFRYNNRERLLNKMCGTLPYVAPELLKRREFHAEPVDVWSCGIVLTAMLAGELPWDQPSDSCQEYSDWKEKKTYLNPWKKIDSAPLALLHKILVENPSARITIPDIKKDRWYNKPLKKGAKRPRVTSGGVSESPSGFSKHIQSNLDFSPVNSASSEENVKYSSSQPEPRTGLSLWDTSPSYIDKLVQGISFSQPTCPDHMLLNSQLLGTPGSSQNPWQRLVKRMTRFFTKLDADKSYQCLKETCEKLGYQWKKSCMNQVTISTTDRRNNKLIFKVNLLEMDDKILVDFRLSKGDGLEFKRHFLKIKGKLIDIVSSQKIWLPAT
As to the kind of experiment: Inhibition of Chk1.

The nature of data set [2]: Inhibition of CYP. The format is ADME.
Data set [3] can be described thus: Lipophilicity, log D of the compound. The class given is physicochemical. The conditions noted are these: octanol/water.
Data set [4] in a line: Oral bioavailability in dog. As to conditions: in vivo. The format is ADME, organism-based, Canis lupus familiaris.
The nature of data set [5]: Half life in mouse. The class given is ADME, organism-based. The conditions noted are these: in vivo.
Data set [6] is described as follows: Solubility of the compound. The class given is physicochemical.
A short description of data set [7]: Clearance in mouse. The class given is ADME, organism-based. The conditions noted are these: in vivo.
Data set [8] has as its target Voltage-gated inwardly rectifying potassium channel KCNH2 (Homo sapiens, UniProt Q12809). As to the kind of experiment: Inhibition of human ERG.
A short description of data set [9]: Half life in dog. The class given is ADME, organism-based, Canis lupus familiaris. The conditions noted are these: in vivo.
The nature of data set [10]: Clearance in dog. The format is ADME, organism-based, Canis lupus familiaris. The conditions noted are these: in vivo.

Voltage-gated inwardly rectifying potassium channel KCNH2, sequence (Q12809 whole entry): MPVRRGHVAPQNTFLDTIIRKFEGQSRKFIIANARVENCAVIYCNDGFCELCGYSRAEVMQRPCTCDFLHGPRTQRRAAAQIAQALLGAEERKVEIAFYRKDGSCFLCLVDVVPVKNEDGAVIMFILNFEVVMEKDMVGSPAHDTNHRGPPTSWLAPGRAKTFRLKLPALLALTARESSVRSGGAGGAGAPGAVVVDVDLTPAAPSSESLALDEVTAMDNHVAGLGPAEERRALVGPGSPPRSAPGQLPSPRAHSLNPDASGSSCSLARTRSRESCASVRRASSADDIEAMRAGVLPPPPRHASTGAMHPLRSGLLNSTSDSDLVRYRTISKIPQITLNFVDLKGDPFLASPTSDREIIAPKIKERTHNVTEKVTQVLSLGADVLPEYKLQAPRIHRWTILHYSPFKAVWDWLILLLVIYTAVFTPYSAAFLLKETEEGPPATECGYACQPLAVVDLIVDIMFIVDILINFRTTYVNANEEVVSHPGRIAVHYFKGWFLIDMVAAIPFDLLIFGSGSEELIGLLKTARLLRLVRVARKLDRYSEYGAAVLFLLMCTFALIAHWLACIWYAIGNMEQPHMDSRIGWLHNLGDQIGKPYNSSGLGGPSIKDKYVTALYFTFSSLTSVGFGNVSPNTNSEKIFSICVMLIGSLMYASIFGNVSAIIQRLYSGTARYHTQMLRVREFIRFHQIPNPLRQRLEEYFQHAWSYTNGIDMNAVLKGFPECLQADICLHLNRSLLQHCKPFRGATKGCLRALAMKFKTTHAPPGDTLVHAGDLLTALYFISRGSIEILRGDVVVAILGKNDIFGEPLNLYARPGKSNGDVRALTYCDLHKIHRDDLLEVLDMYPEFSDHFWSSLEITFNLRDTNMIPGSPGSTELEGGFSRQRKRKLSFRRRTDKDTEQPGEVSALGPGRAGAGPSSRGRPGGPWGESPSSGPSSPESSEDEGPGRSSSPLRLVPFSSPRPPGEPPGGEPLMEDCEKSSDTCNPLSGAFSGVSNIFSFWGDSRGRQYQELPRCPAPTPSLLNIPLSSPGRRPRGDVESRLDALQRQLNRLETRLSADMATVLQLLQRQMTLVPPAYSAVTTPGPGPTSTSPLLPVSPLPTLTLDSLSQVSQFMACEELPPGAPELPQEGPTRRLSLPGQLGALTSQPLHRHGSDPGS

Take `NC(=O)Nc1sc(-c2ccc(O)cc2)cc1C(=O)N[C@H]1CCCNC1`: the EC50 (in general, the midpoint of the concentration-response curve) in the data set on HT-29 (Homo sapiens, HT-29) turned out to be 1200 nM. In data set [1], the half-inhibitory concentration (IC50) (commonly the concentration that gives 50% inhibition) was found to be 7 nM.

In the data set with HT-29 (Homo sapiens, HT-29), `NC(=O)Nc1sc(-c2ccccc2F)cc1C(=O)N[C@H]1CCCNC1` displayed an EC50 of 80 nM. In [1], this compound returned an IC50 of 9 nM.

Take `CNCCNC(=O)c1cc(-c2ccccc2)sc1NC(N)=O`: a half-maximal response with HT-29 (Homo sapiens, HT-29) (EC50) required 580 nM. The compound also registered an IC50 in [1] of 100 nM.

With `CN(C)CCNC(=O)c1cc(-c2ccccc2)sc1NC(N)=O`, the EC50 in the data set on HT-29 (Homo sapiens, HT-29) is 4100 nM. The same compound displayed an IC50 in data set [1] of 110 nM.

On to `N#Cc1ccc(-c2cc(C(=O)N[C@H]3CCCNC3)c(NC(N)=O)s2)cc1`, for which the midpoint of the response in the data set with HT-29 (Homo sapiens, HT-29), the EC50, lay at 80 nM. For the same compound, it took 6 nM to reach half-maximal inhibition in data set [1] (IC50).

Compound `NC(=O)Nc1sc(-c2ccc(C(F)(F)F)cc2)cc1C(=O)N[C@H]1CCCNC1` came in with an EC50 in the data set on HT-29 (Homo sapiens, HT-29) of 170 nM. Moreover, in data set [1], half-maximal inhibition (IC50) required 19 nM.

On to `NC(=O)Nc1sc(-c2ccc(Cl)cc2)cc1C(=O)N[C@H]1CCCNC1`, for which a half-maximal effect in the data set on HT-29 (Homo sapiens, HT-29) (EC50) was put at 40 nM. Inhibition in data set [1] was half-maximal at 10 nM (IC50).

Regarding `NC(=O)Nc1sc(-c2cccc(C(N)=O)c2)cc1C(=O)N[C@H]1CCCNC1`, the EC50 in the data set on HT-29 (Homo sapiens, HT-29) worked out at 8100 nM. In data set [1], this compound returned an IC50 of 5 nM.

The compound `NC(=O)Nc1sc(-c2ccccc2)cc1C(=O)NC[C@H]1CCCNC1` yielded an EC50 in the data set with HT-29 (Homo sapiens, HT-29) of 2100 nM. For the same compound, in data set [1], the IC50 came out at 100 nM.

In the case of `NC(=O)Nc1sc(-c2ccccc2)cc1C(=O)NC[C@@H]1CCCNC1`, in the data set on HT-29 (Homo sapiens, HT-29), it took 6200 nM to reach a half-maximal effect (EC50). Moreover, in data set [1], the IC50 amounted to 100 nM.

As for `NC(=O)Nc1sc(-c2ccccc2)cc1C(=O)N[C@@H]1CCCCNC1`, the EC50 with HT-29 (Homo sapiens, HT-29) amounted to 110 nM. For the same compound, inhibition in data set [1] was half-maximal at 3 nM (IC50).

In the case of `CN1CCC[C@@H](NC(=O)c2cc(-c3ccccc3)sc2NC(N)=O)C1`, in the data set on HT-29 (Homo sapiens, HT-29), the EC50 turned out to be 2300 nM. For the same compound, in data set [1], the IC50 was found to be 160 nM.

`NC(=O)Nc1sc(-c2ccc(C(=O)N3CCCCC3)cc2)cc1C(=O)N[C@H]1CCCNC1` returned an EC50 with HT-29 (Homo sapiens, HT-29) of 130 nM. Further, the half-maximal inhibitory concentration (IC50) in data set [1] worked out at 11 nM.

As to `NC(=O)Nc1sc(-c2ccccc2)cc1C(=O)N[C@H]1CCCNC1`, the IC50 in data set [2] was > 10000 nM; in data set [8], > 31600 nM. For the same compound, in data set [3], the logD (commonly lipophilicity at a set pH, counting ionised and neutral species) was 1.28. Also, the bioavailability (usually the share of a dose that reaches the circulation, judged against a reference dose that is usually intravenous) in [4] stood at 78.8%. Also, the half-life – broadly, how long it takes for the measured level to halve – is 1.5 h in data set [5] and 5.2 h in data set [9]. The solubility – broadly, the dissolved amount per volume that the medium holds – in [6] is > 2000 µM. The clearance (commonly the volume of plasma or blood freed of the substance per unit of time) was determined as 35.7 mL/min/kg in [7] and 12.8 mL/min/kg in data set [10].

`NC(=O)Nc1sc(-c2ccc(N)cc2)cc1C(=O)N[C@H]1CCCNC1` had a 50% effective concentration (EC50) in the data set on HT-29 (Homo sapiens, HT-29) of 920 nM. The same compound had a concentration for half-maximal inhibition (IC50) in data set [1] of 13 nM.

On to `CNC(=O)c1ccc(-c2cc(C(=O)N[C@H]3CCCNC3)c(NC(N)=O)s2)cc1`, for which the 50% effective concentration (EC50) with HT-29 (Homo sapiens, HT-29) was 4300 nM. Besides, 9 nM corresponded to half-maximal inhibition in data set [1] (IC50).

The compound `CS(=O)(=O)Nc1ccc(-c2cc(C(=O)N[C@H]3CCCNC3)c(NC(N)=O)s2)cc1` had a 50% effective concentration (EC50) in the data set with HT-29 (Homo sapiens, HT-29) of 2200 nM. In data set [1], the IC50 worked out at 41 nM.

In the data set on HT-29 (Homo sapiens, HT-29), `CC(=O)c1ccc(-c2cc(C(=O)N[C@H]3CCCNC3)c(NC(N)=O)s2)cc1` came in with a concentration giving a half-maximal response (EC50) of 60 nM. For the same compound, the IC50 in data set [1] amounted to 7 nM.

Take `NC(=O)Nc1sc(-c2cccnc2)cc1C(=O)N[C@H]1CCCNC1`: the EC50 in the data set with HT-29 (ht-29) worked out at 300 nM. The compound further yielded a concentration for half-maximal inhibition (IC50) in data set [1] of 6 nM.

In the data set on HT-29 (ht-29), `NC(=O)Nc1sc(-c2ccncc2)cc1C(=O)N[C@H]1CCCNC1` returned an EC50 of 340 nM. The compound further showed an IC50 in data set [1] of 4 nM.

In the case of `CN(C)c1ccc(-c2cc(C(=O)N[C@H]3CCCNC3)c(NC(N)=O)s2)cc1`, it took 90 nM to reach a half-maximal effect in the data set on HT-29 (Homo sapiens, HT-29) (EC50). The IC50 in data set [1] stood at 41 nM.

As to `NC(=O)Nc1sc(-c2ccc(C(=O)N3CCOCC3)cc2)cc1C(=O)N[C@H]1CCCNC1`, the EC50 in the data set on HT-29 (Homo sapiens, HT-29) came out at 610 nM. Further, half-maximal inhibition in data set [1] (IC50) required 10 nM.

`CC(=O)Nc1cccc(-c2cc(C(=O)N[C@H]3CCCNC3)c(NC(N)=O)s2)c1` registered a concentration giving a half-maximal response (EC50) in the data set with HT-29 (Homo sapiens, HT-29) of 1800 nM. The midpoint of inhibition in data set [1], the IC50, lay at 8 nM.

In turn, `NCCNC(=O)c1cc(-c2ccccc2)sc1NC(N)=O` gave a concentration for a half-maximal effect (EC50) in the data set with HT-29 (Homo sapiens, HT-29) of 960 nM. The 50% inhibitory concentration (IC50) in [1] turned out to be 30 nM.

For `NC(=O)Nc1sc(-c2ccccc2)cc1C(=O)NC1CCCCNC1=O` (centres undefined), the EC50 in the data set on HT-29 (Homo sapiens, HT-29) was > 13000 nM. The compound further came in with an IC50 in [1] of 23000 nM.

In the data set on HT-29 (Homo sapiens, HT-29), `Cc1ccc(-c2cc(C(=O)N[C@H]3CCCNC3)c(NC(N)=O)s2)cc1` showed an EC50 of 70 nM. The compound further displayed an IC50 in [1] of 10 nM.

In the data set with HT-29 (Homo sapiens, HT-29), `NC(=O)Nc1sc(-c2cccc(Cl)c2)cc1C(=O)N[C@H]1CCCNC1` gave an EC50 of 40 nM. This compound also gave an IC50 in data set [1] of 14 nM.

In the data set on HT-29 (Homo sapiens, HT-29), `NC(=O)Nc1sc(-c2ccc(F)cc2)cc1C(=O)N[C@H]1CCCNC1` registered an EC50 of 30 nM. For the same compound, inhibition in data set [1] was half-maximal at 9 nM (IC50).

In the data set on HT-29 (ht-29), `NC(=O)Nc1sc(-c2cccc(F)c2)cc1C(=O)N[C@H]1CCCNC1` displayed an EC50 of 20 nM. Also, half-maximal inhibition in data set [1] (IC50) required 11 nM.

For the compound `CCN(CC)CCOc1cccc(-c2cc(C(=O)N[C@H]3CCCNC3)c(NC(N)=O)s2)c1`, the EC50 with HT-29 (Homo sapiens, HT-29) amounted to 1100 nM. The 50% inhibitory concentration (IC50) in data set [1] is < 10 nM.

Turning to `NC(=O)Nc1sc(-c2ccc(C(N)=O)cc2)cc1C(=O)N[C@H]1CCCNC1`, in the data set with HT-29 (Homo sapiens, HT-29), the EC50 was 3200 nM. Besides, half-maximal inhibition in data set [1] (IC50) was put at 5 nM.

With `NC(=O)Nc1sc(-c2cccs2)cc1C(=O)N[C@H]1CCCNC1`, the EC50 in the data set on HT-29 (Homo sapiens, HT-29) was < 8 nM. In addition, in [1], the IC50 stood at 3 nM.

In the case of `NC(=O)Nc1sc(-c2ccsc2)cc1C(=O)N[C@H]1CCCNC1`, in the data set with HT-29 (Homo sapiens, HT-29), the EC50 is < 9 nM. It took 6 nM to reach half-maximal inhibition in [1] (IC50).

In the data set on HT-29 (Homo sapiens, HT-29), `CS(=O)(=O)c1ccc(-c2cc(C(=O)N[C@H]3CCCNC3)c(NC(N)=O)s2)cc1` registered an EC50 of 200 nM. The same compound came in with an IC50 in data set [1] of 6 nM.

`CN(C)C(=O)c1ccc(-c2cc(C(=O)N[C@H]3CCCNC3)c(NC(N)=O)s2)cc1`: the EC50 in the data set on HT-29 (Homo sapiens, HT-29) was determined as 320 nM. Further, the 50% inhibitory concentration (IC50) in data set [1] was 9 nM.

The compound `CCN(CC)CCOc1cccc(-c2cc(C(=O)NC3CCCNC3)c(NC(N)=O)s2)c1` (racemic) returned an EC50 in the data set on HT-29 (Homo sapiens, HT-29) of 2600 nM. Besides, in data set [1], the IC50 amounted to 10 nM.
